Test results published in patent US20140357487A1, “PLANTS HAVING INCREASED TOLERANCE TO HERBICIDES” (BASF SE, priority 2011, published 2014).

Tests used:
[1] = system: transgenic soybean plants, Arabidopsis HPPD, event SDS-9857; assay: Greenhouse testing of transgenic soybean plants, Arabidopsis HPPD; format: in vivo, Glycine max; details: soybean SDS-9857, 5 days after herbicide treatment, average of 8 T1
Excerpt: (§1) Various methods for the production of stably transformed plants are well known in the art. Coumarone-derivative herbicide tolerant soybean (Glycine max) or corn (Zea mays) plants can be produced by a method described by Olhoft et al. (US patent 2009/0049567). Briefly, HPPD or HST encoding polynucleotides are cloned into a binary vector using standard cloning techniques as described by Sambrook et al. (Molecular cloning (2001) Cold Spring Harbor Laboratory Press). The final vector construct contains an HPPD or HST encoding sequence flanked by a promoter sequence (e.g. the ubiquitin promoter (PcUbi) sequence) and a terminator sequence (e.g. the nopaline synthase terminator (NOS) sequence) and a resistance marker gene cassette (e.g. AHAS) (FIG. 2). Optionally, the HPPD or HST gene can provide the means of selection. Agrobacterium-mediated transformation is used to introduce the DNA into soybean's axillary meristem cells at the primary node of seedling explants. After inoculation and co-cultivation with Agrobacteria, the explants are transferred to shoot induction medium without selection for one week. The explants are subsequently transferred to shoot induction medium with 1-3 μM imazapyr (Arsenal) for 3 weeks to select for transformed cells. Explants with healthy callus/shoot pads at the primary node are then transferred to shoot elongation medium containing 1-3 μM imazapyr until a shoot elongates or the explant dies. After regeneration, transformants are transplanted to soil in small pots, placed in growth chambers (16 hr day/8 hr night; 25° C. day/23° C. night; 65% relative humidity; 130-150 mE m−2 s−1) and subsequently tested for the presence of the T-DNA via Taqman analysis. After a few weeks, healthy, transgenic positive, single copy events are transplanted to larger pots and allowed to grow in the growth chamber. Transformation of corn plants is done by a method described by McElver and Singh (WO 2008/124495). Plant transformation vector constructs containing HPPD or HST sequences are introduced into maize immature embryos via Agrobacterium-mediated transformation. Transformed cells are selected in selection media supplemented with 0.5-1.5 μM imazethapyr for 3-4 weeks. Transgenic plantlets are regenerated on plant regeneration media and rooted afterwards. Transgenic plantlets are subjected to TaqMan analysis for the presence of the transgene before being transplanted to potting mixture and grown to maturity in greenhouse. Arabidopsis thaliana is transformed with HPPD or HST sequences by floral dip method as described by McElver and Singh (WO 2008/124495). Transgenic Arabidopsis plants are subjected to Tag Man analysis for analysis of the number of integration loci. Transformation of Oryza sativa (rice) are done by protoplast transformation as described by Peng et al. (U.S. Pat. No. 6,653,529)
(§2) Transgenic plants expressing heterologous HPPD or HST enzymes are tested for tolerance against coumarone-derivative herbicides in greenhouse experiments.
(§3) For post emergence treatment, the test plants are first grown to a height of 3 to 15 cm, depending on the plant habit, and only then treated with the herbicides. For this purpose, the test plants are either sown directly and grown in the same containers, or they are first grown separately and transplanted into the test containers a few days prior to treatment.
Depending on the species, the plants are kept at 10-25° C. or 20-35° C. […] During this time, the plants are tended and their response to the individual treatments is evaluated. […] Tolerance to coumarone-derivative herbicides can also be assessed in Arabidopsis. In this case transgenic Arabidopsis thaliana plants are assayed for improved tolerance to coumarone-derivative herbicides in 48-well plates. Seeds are surface sterilized by stirring for 5 min in ethanol+water (70+30 by volume), rinsing one time with ethanol+water (70+30 by volume) and two times with a sterile, deionized water. […]

[2] = system: transgenic soybean plants, Glycine Max HPPD, event SDS-10298; assay: Greenhouse testing of transgenic soybean plants, Glycine Max HPPD; format: in vivo; details: soybean SDS-10298, 5 days after herbicide treatment, average of 8 T1
Excerpt: as §1, §2, §3
(§4) Depending on the species, the plants are kept at 10-25° C. or 20-35° C. The test period extends over 3 weeks. During this time, the plants are tended and their response to the individual treatments is evaluated. […] Tolerance to coumarone-derivative herbicides can also be assessed in Arabidopsis. In this case transgenic Arabidopsis thaliana plants are assayed for improved tolerance to coumarone-derivative herbicides in 48-well plates. Seeds are surface sterilized by stirring for 5 min in ethanol+water (70+30 by volume), rinsing one time with ethanol+water (70+30 by volume) and two times with a sterile, deionized water. […]

[3] = system: transgenic corn plants, Arabidopsis HPPD, event SDM-71884; assay: Greenhouse testing of transgenic corn plants, Arabidopsis HPPD; format: in vivo, Zea mays; details: corn SDM-71884, 5 days after herbicide treatment, average of 8 T1
Excerpt: as §1, §2, §3, §4

[4] = system: transgenic corn plants, Arabidopsis I393L L385V, event SDM-71855; assay: Greenhouse testing of transgenic corn plants, Arabidopsis I393L L385V; format: in vivo, Zea mays; details: corn SDM-71855, 5 days after herbicide treatment, average of 8 T1
Excerpt: as §1, §2, §3, §4

**Q.** With `CC1(C)c2cccnc2C(O)=C(c2ccc(Cl)nc2Cl)S1(=O)=O` [Inhibitor 2, 7-(2,6-dichloro-3-pyridyl)-5,5-dimethyl-6,6-dioxo-thiopyrano[4,3-b]pyridin-8-ol] as the molecule, how does the “Injury evaluation, scale of 1-100, bleaching phenotype” value (shortened to “Injury evaluation, scale”) ([1]; 2.5 g/ha) read?
**A.** The value was 1.

**Q.** What about the “Injury evaluation, scale” value ([1]; 10 g/ha) of the same molecule?
**A.** Its value is 1.

**Q.** And the “Injury evaluation, scale” value ([1]; 40 g/ha)?
**A.** Its value is 2.

**Q.** What about the “Injury evaluation, scale” value ([2]; 2.5 g/ha) of the same molecule?
**A.** The value was 4.

**Q.** And the “Injury evaluation, scale” value ([2]; 10 g/ha)?
**A.** The value was 5.

**Q.** And the “Injury evaluation, scale” value ([2]; 40 g/ha)?
**A.** The value was 17.

**Q.** What about the “Injury evaluation, scale” value ([3]; 2.5 g/ha) of the same molecule?
**A.** Its value is 4.

**Q.** What about the “Injury evaluation, scale” value ([3]; 10 g/ha) of the same molecule?
**A.** Its value is 13.

**Q.** What about the “Injury evaluation, scale” value ([3]; 40 g/ha) of the same molecule?
**A.** Its value is 4.

**Q.** What about the “Injury evaluation, scale” value ([4]; 2.5 g/ha) of the same molecule?
**A.** The value was 7.

**Q.** What about the “Injury evaluation, scale” value ([4]; 10 g/ha) of the same molecule?
**A.** Its value is 7.

**Q.** What about the “Injury evaluation, scale” value ([4]; 40 g/ha) of the same molecule?
**A.** Its value is 25.

**Q.** What does the source list for `Cc1c(C(=O)c2cnn(C)c2O)ccc(S(C)(=O)=O)c1C1=NOCC1` [Topramezone, reference compound]?
**A.** Injury evaluation, scale of 1-100, bleaching phenotype ([1]; 6.25 g/ha): 1; Injury evaluation, scale of 1-100, bleaching phenotype ([1]; 25 g/ha): 10; Injury evaluation, scale of 1-100, bleaching phenotype ([1]; 100 g/ha): 19; Injury evaluation, scale of 1-100, bleaching phenotype ([2]; 6.25 g/ha): 7; Injury evaluation, scale of 1-100, bleaching phenotype ([2]; 25 g/ha): 18; Injury evaluation, scale of 1-100, bleaching phenotype ([2]; 100 g/ha): 28; Injury evaluation, scale of 1-100, bleaching phenotype ([3]; 6.25 g/ha): 0; Injury evaluation, scale of 1-100, bleaching phenotype ([3]; 25 g/ha): 0; Injury evaluation, scale of 1-100, bleaching phenotype ([3]; 100 g/ha): 1; Injury evaluation, scale of 1-100, bleaching phenotype ([4]; 6.25 g/ha): 0; Injury evaluation, scale of 1-100, bleaching phenotype ([4]; 25 g/ha): 0; Injury evaluation, scale of 1-100, bleaching phenotype ([4]; 100 g/ha): 4
